Measurements published in patent US4172145A, “Benzo(b)furylacetic acid derivatives to reduce inflammation” (priority 1975, dated 1979).
Where two headings read alike, the source gives them in different places.

Assays:
[1] = in vivo; settings: oral, observed one week, Litchfield and Wilcoxon
Procedure: In this test, five groups, each consisting of 5 mice (male dd strain; weight: 19-21 g) and 5 rats (male Wistar strain; weight: 100-120 g) were used. […] The LD50 was calculated according to the method of Litchfield and Wilcoxon [Journal of Pharmacol. and Exper. Therap.

[2] = test system: carrageenin-induced edema on the hind paw of rats; assay: Anti-edema effect on carrageenin-induced edema on the hind paw of rats (Carrageenin Edema Method); assay type: in vivo, rat (male Wistar strain); settings: rat, oral, 3 hours after carrageenin; for inhibition in vivo at 75 mg/kg / inhibition in vivo at 150 mg/kg / inhibition in vivo at 300 mg/kg: read-out: Anti-edema Effect, Suppression Ratio
Procedure: The anti-edema effect was determined according to the method of Yamazaki et al [Yamazaki, H., et al; Folia Pharmacologica Japonica, 63, 302 (1967)].
In this test, a group consisting of five rats (male Wistar strain: weight 100-120 g) was used for the test and control groups. The compounds shown in Table 2 were administered orally to the rats of the test group. After one hour, 0.1 ml of a 1% carrageenin solution (phlogistic agent) was further administered to each rat by subcutaneous injection in one hind paw. To each rat of the control group, 0.1 ml of a 1% carrageenin solution was also administered in a similar manner to that for test rats. 1, 3 and 5 hours after administration of the phlogistic agent, the swelling ratio was calculated by means of the following equation: […]
Test group [formula] in which b: swelling ratio
B: volume of a hind paw without administration of phlogistic agent
B': volume of a hind paw administered with phlogistic agent
Control group [formula] in which a: swelling ratio
A: volume of a hind paw without administration of phlogistic agent
A': volume of a hind paw administered with phlogistic agent
The anti-edema effect was expressed as the suppression ratio of the edema in comparison with the control group to which the test compound had not been administered. The suppression ratio of the edema was determined 3 hours after administration of the phlogistic agent and was calculated by means of the following equation: [formula] in which a and b are as hereinbefore defined.

[3] = test system: acetic acid-induced writhing reactions in mice; assay: Analgesic activity in mice (AcOH Writhing Method); assay type: in vivo, mouse (male dd-strain); settings: mouse, oral; for inhibition in vivo at 150 mg/kg / inhibition in vivo at 300 mg/kg: 1 h before acetic acid, read-out: Analgesic Effect (AcOH Writhing Method), Suppression Ratio; for ED50: read-out: Analgesic Effect (AcOH Writhing Method), ED50
Procedure: In this test, three groups, each consisting of 10 mice (male dd-strain; weight: 19-21 g) were used. The compounds shown in Table 3 were administered orally to the test mice. One hour after the administration, the mice were treated with 0.1 ml/10 g of 0.7% acetic acid solution in physiological saline by intraperitoneal injection according to the method of Koster et al [Koster, R., et al; Fed. Proc., 18, 412 (1959)]. Ten minutes after the treatment, the number of writhing reactions occurring in the mice was counted.

[4] = test system: pain threshold of inflamed and not inflamed paws of rats; assay: Analgesic activity in rats (Randall-Selitto Method); assay type: in vivo, rat (male Wister strain); settings: Rattus norvegicus, po, P.O. 150 mg/kg, read-out: Analgesic Coefficient
Procedure: A group consisting of 6-7 rats (male Wister strain; weight: 100-120 g) was used for the test and control groups in this test. Each rat of both groups was treated with 0.1 ml of a 1% carrageenin solution as phlogistic agent by subcutaneous injection in one hind paw. 3 hours after the administration, pressure was applied to the treated paw of each rat by means of a pressing device (manufactured by Ugobasile S. A., Italy). The threshold of pain induced by press was measured with reference to the shriek and struggle according to the method of Randall and Selitto [Randall, L. O. and Selitto, J. J.; Arch, Int. Pharmocodyn., 111, 409 (1957)]. From each group 5 rats having a good response reaction, i.e. the pain threshold was not more than 70 g, were respectively selected. […] 1, 2 and 3 hours after administration, pressure was again applied to both the inflamed and not inflamed paws of the test rats and the pain threshold was measured. On the other hand, without the administration of the active compound, the pressure was applied to both the inflamed and not inflamed paws of the selected 5 rats of the control group and the pain threshold was measured. The inflamed paws of the test and control groups were compared with each other. Also the not inflamed paws of the both groups were compared with each other.
The analgesic coefficient was calculated by means of the following equation, and the larger analgesic coefficient the better analgesic activity. [formula] in which X: analgesic coefficient (%)
P1 : threshold (g) of the test rats administered with active compounds
P2 : threshold (g) of the control rats without administration of active compound

[5] = in vivo; settings: rat, po
Procedure: A test group consisting of 10-15 rats (male Wistar strain; weight: 180-220 g) was used in this test. Each rat was fasted for 20 hours, but water was allowed ad libitum. The compounds shown in Table 5 were administered orally. After a 20-hour interval during which the rats were not fed but were allowed water, each rat was administered under ether anesthesia with 0.5 ml per 100 g body weight of a 5% solution of pontamine sky blue 6BX in saline (pH 7.2--adjusted with 0.5 N HCl) by intravenous injection. 15 minutes after administration each rat was killed. The stomach was removed and maintained in a 1% formalin solution. After about 2 hours, the stomach was opened along the greater curvature and the length of lesions (dark blue areas against pale blue background) in the glandular portion was measured under a dissecting microscope (10×) provided with a square grid. The sum of the lengths (mm) of lesions was used as ulcer index.

[6] = Eur. J. Med. Chem. 1975-10, N. 2, p. 182-186; cited from earlier work
[7] = Eur. J. Med. Chem. 1975-10, N. 2, p. 182-186; cited from earlier work; remark: listed apart in the source
[8] = mouse, read-out: Acute Toxicity (P.O.), LD50, Mouse
[9] = rat, read-out: Acute Toxicity (P.O.), LD50, Rat

Work on `Cc1ccc2oc(CC(=O)O)c(C)c2c1` [Test Compound 4, 3,5-dimethyl-2-benzo(b)furylacetic acid] yielded an LD50 at 168 h [1, 8] of 1310 mg/kg, an LD50 at 168 h [1, 9] greater than 1000 mg/kg and an inhibition in vivo at 75 mg/kg [2] of 43.8%. The inhibition in vivo at 150 mg/kg [2] was 56.2%, the inhibition in vivo at 300 mg/kg [2] was 70.9% and the ED50 [2] was 100 mg/kg. For the same molecule, the inhibition in vivo at 150 mg/kg [3] was 11.2%, the inhibition in vivo at 300 mg/kg [3] was 41.4% and the ED50 [3] was 350 mg/kg. The change in vivo at 150 mg/kg ([4]; 1 h, inflamed paw, 1 hr.) was 35.4%, the change in vivo at 150 mg/kg ([4]; 1 h, not inflamed paw, 1 hr.) was 0% and the change in vivo at 150 mg/kg ([4]; 2 h, inflamed paw, 2 hr.) was 18.8%. It also gave a change in vivo at 150 mg/kg ([4]; 2 h, not inflamed paw, 2 hr.) of 0%, a change in vivo at 150 mg/kg ([4]; 3 h, inflamed paw, 3 hr.) of 7.1% and a change in vivo at 150 mg/kg ([4]; 3 h, not inflamed paw, 3 hr.) of 0%. For the same molecule, the TD50 at 20 h [5] was greater than 300 mg/kg.

`Cc1c(CC(=O)O)oc2ccc(F)cc12` [Test Compound 5, 5-fluoro-3-methyl-2-benzo(b)furylacetic acid] gave an LD50 at 168 h [1, 8] of 1750 mg/kg, an LD50 at 168 h [1, 9] greater than 1000 mg/kg and an inhibition in vivo at 75 mg/kg [2] of 37.9%. For the same molecule, the inhibition in vivo at 150 mg/kg [2] was 60%, the inhibition in vivo at 300 mg/kg [2] was 71.9% and the ED50 [2] was 105 mg/kg. For the same molecule, the inhibition in vivo at 150 mg/kg [3] was 26%, the inhibition in vivo at 300 mg/kg [3] was 41.4% and the ED50 [3] was 380 mg/kg. It also gave a change in vivo at 150 mg/kg ([4]; 1 h, inflamed paw, 1 hr.) of 38.6%, a change in vivo at 150 mg/kg ([4]; 1 h, not inflamed paw, 1 hr.) of 0% and a change in vivo at 150 mg/kg ([4]; 2 h, inflamed paw, 2 hr.) of 23.5%. It also gave a change in vivo at 150 mg/kg ([4]; 2 h, not inflamed paw, 2 hr.) of 0%, a change in vivo at 150 mg/kg ([4]; 3 h, inflamed paw, 3 hr.) of 19.3% and a change in vivo at 150 mg/kg ([4]; 3 h, not inflamed paw, 3 hr.) of 0%. It also gave a TD50 at 20 h [5] greater than 300 mg/kg.

For `O=C(O)Cc1cc2cc(Cl)ccc2o1` [chloro-5 benzoful-2-acetate], the “anti-inflammatory activity versus phenylbutazone” value [6] is listed as “lower anti-inflammatory activity” and the toxicity versus phenylbutazone [7] is listed as “minor toxicity than phenylbutazone”.

In the case of `O=C(O)c1cc2cc(Cl)ccc2o1` [chloro-5-benzo(b)furyl-2 carboxylic acid], the “anti-inflammatory activity versus phenylbutazone” value [6] is given as “lower anti-inflammatory activity” and the toxicity versus phenylbutazone [7] is given as “minor toxicity than phenylbutazone”.

For `COc1ccc2oc(CC(=O)O)cc2c1` [methoxy-5 benzo(b)furyl-2-acetate], the “anti-inflammatory activity versus phenylbutazone” value [6] is listed as “lower anti-inflammatory activity” and the toxicity versus phenylbutazone [7] is listed as “minor toxicity than phenylbutazone”.
